# Laboratory results as given in US10844354B2, “Cardiomyocyte maturation” (Ncardia B.V., priority 2014, dated 2020).
# System: stem-cell derived cardiomyocytes
# Test: Perforated patch clamp action potential measurement of spontaneously beating stem-cell derived cardiomyocytes
# Assay type: cell-based, human
# Settings: induced pluripotent stem cell derived cardiomyocytes
# Experimental: Differentiated (fetal-like/immature) human stem-cell derived cardiomyocytes were subsequently cultured and allowed to mature as described below, although any other method in the art may suitable be used. Tissue culture plastic was coated using Matrigel (Corning) at a concentration of 1/100 in DMEM, for 45 min at room temperature. A single cell suspension coming from dissociated embryoid bodies, dissociated monolayers or (commercially obtained) frozen (fetal-like (immature)) stem-cell derived cardiomyocytes were seeded at an appropriate density on matrigel coated tissue culture plastic (e.g. in 20-40 k cells per well of a 96-well plate, e.g. 20-200 k per well of a 12 well plate). On day 1 following plating, the foetal-like (immature) cardiomyocytes were exposed to a culture medium composition of the invention, which consists of a serum-free culture medium composition comprising 50 ng/ml of T3 (Sigma T6397), 2 mM of carnitine, 5 mM of creatine, 5 mM of taurine, 2.2 microgram/ml of cholesterol, 0.1 microgram/ml of linoleic acid, 0.1 microgram/ml of linolenic acid, 0.1 microgram/ml of palmitic acid (lipids, for example, from Gibco 11905), 10 mg/ml of insulin, 5.5 mg/ml of transferrin, 0.0067 mg/ml of selenium (insulin, transferrin and selenium from e.g. Gibco 51500), 0.01% of trace element mix B (as described herein; Cellgro 99-175-CL), 0.1% of trace element mix C (as described herein; Cellgro 99-176-CL), 0.5 w/w % of antibiotics (penicillin-streptomycin mixture commercially available Gibco (Gibco 12070; 5000 U/ML), 0.05 mg/ml ascorbic acid, 2 mM of Glutamax supplement (i.e. L-alanyl-L-glutamine dipeptide in 0.85% NaCl, commercially available at Gibco, e.g. Gibco 35050), 0.125 w/w % polyvinylalcohol (PVA), 450 nM of alpha monothiolglycerol (MTG) (commercially available), 025 w/w %/o BSA (Bovostar BSAS1.0) in 46.5% (w/w) IMDM (Gibco 21056) and 46.5% (w/w) HAM F-12 with glutamax (Gibco 31765). All concentrations are expressed as final concentration in the culture medium composition. This step was repeated every 2-3 days. In those experiments that also use thyroid hormone or a thyroid hormone analog, treatment with the culture medium composition as taught herein comprising e.g. T3 started either at day 1, day 3 or day 7 post plating.
# At day 10 dbcAMP was added to a final concentration of 0.5 mM and the cell were further cultured. Action potential measurements of control and dbcAMP treated cells were performed using the patch clamp technique at 24, 48 and 72-hours post addition of the cAMP-raising compound.
# Electrophysiology of the cells treated with the cAMP-raising compound or not was determined by standard techniques in the art, in particular with the method as described by for example, Bellin et al. (EMBO J. 2013; 32(24): 3161-3175), with the modification that in the examples provide herein spontaneous activity of the stem-cell derived cardiomyocytes was determined and no electric stimulation was required, although measurement may, as the skilled person knows, also be done under conditions of stimulation. Action potentials from small groups of cells (5-10 cells) were measured with the perforated patch clamp technique using an Axopatch 200b amplifier (Molecular Devices) and low resistance patch pipettes (1.5-2.5 MΩ). Data acquisition and analyses of action potentials were performed with pClamp 10 (axon instruments) and custom made software. Action Potentials were corrected for the calculated liquid junction potential (−15 mV).
# Action potential from spontaneous beating cells were measured at 37±0.20 C using a modified Tyrode's solution containing (in mM): 140 NaCl, 5.4 KCl, 1.8 CaCl2, 1.0 MgCl2, 5.5 glucose, 5.0 HEPES; pH7.2 (NaOH).
# The pipette solution contained (in mM): 125 K-gluconate, 20 KCl, 5 NaCl, 0.22 amphotericin-B, 10 HEPES; pH 7.2 (KOH). […]
structure (smiles),measurement,setting,value
"CCCC(=O)Nc1ncnc2c1ncn2[C@@H]1O[C@@H]2COP(=O)(O)O[C@H]2[C@H]1OC(=O)CCC [dbcAMP, N6,2′-O-dibutyryladenosine 3′,5′-cyclic monophosphate]",upstroke velocity,"0.5 mM dbcAMP for 24, 48 and 72 hrs vs non-treated, FIG. 1",improved the upstroke velocity dramatically
same,resting membrane potential (liquid junction potential corrected),"0.5 mM dbcAMP for 24, 48 and 72 hrs vs non-treated, FIG. 2",improved the resting membrane potential dramatically
same,representative action potentials,"dbcAMP for 24, 48 and 72 hrs vs non-treated, FIG. 3",action potentials that are more adult cardiomyocyte like
same,amplitude,"dbcAMP for 24, 48 and 72 hrs vs non-treated, FIG. 4",improves the amplitude
same,repolarization parameters,"dbcAMP for 24, 48 and 72 hrs vs non-treated, FIG. 5",improves the repolarization parameters
same,representative action potentials,"dbcAMP for 72 hrs vs non-treated, FIG. 6",action potentials that are more adult cardiomyocyte like
